Measurements published in PubChem BioAssay (NCI).
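Compound exposure: 48 hours, 5 concentrations, 96-well plates. The concentration for 50% growth inhibition is given as GI50. TGI denotes the concentration required for complete inhibition of growth.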

Assays:
Assay in all cases: inhibition of tumour cell growth, NCI panel, 48 h; in the data active = GI50 below about 0.43 µM; inactive = the rest
SK-MEL-2 melanoma = tested on: SK-MEL-2 melanoma
CCRF-CEM leukemia = tested on: CCRF-CEM leukemia
K-562 leukemia = tested on: K-562 leukemia
DMS 114 small cell lung = tested on: DMS 114 small cell lung
RXF 393 renal = tested on: RXF 393 renal
SF-295 CNS = tested on: SF-295 CNS
HOP-18 NSCLC = tested on: HOP-18 NSCLC
LXFL 529 NSCLC = tested on: LXFL 529 NSCLC
SR leukemia = tested on: SR leukemia
NCI-H23 lung = tested on: NCI-H23 lung
786-0 renal = tested on: 786-0 renal
A549 NSCLC = tested on: A549 NSCLC
NCI-H522 lung = tested on: NCI-H522 lung
KM12 colon = tested on: KM12 colon
UACC-257 melanoma = tested on: UACC-257 melanoma
HT29 colon = tested on: HT29 colon
SF-539 CNS = tested on: SF-539 CNS
SF-268 CNS = tested on: SF-268 CNS
OVCAR-8 ovarian = tested on: OVCAR-8 ovarian
SK-OV-3 ovarian = tested on: SK-OV-3 ovarian
SNB-19 CNS = tested on: SNB-19 CNS
IGROV1 ovarian = tested on: IGROV1 ovarian
M19-MEL melanoma = tested on: M19-MEL melanoma
HCT-15 colon = tested on: HCT-15 colon
SK-MEL-5 melanoma = tested on: SK-MEL-5 melanoma
ACHN renal = tested on: ACHN renal
COLO 205 colon = tested on: COLO 205 colon
SK-MEL-28 melanoma = tested on: SK-MEL-28 melanoma

[O-][Cl+3]([O-])([O-])[O-].[O]=[Ru]=[O].c1ccc(-c2ccccn2)nc1.c1ccc(-c2ccccn2)nc1
61.2 µM: TGI (DMS 114 small cell lung)
34.7 µM: TGI (SR leukemia)
> 100 µM: TGI (SK-MEL-2 melanoma) | TGI (CCRF-CEM leukemia) | TGI (K-562 leukemia) | TGI (RXF 393 renal) | TGI (SF-295 CNS) | TGI (HOP-18 NSCLC) | TGI (LXFL 529 NSCLC) | TGI (NCI-H23 lung) | TGI (786-0 renal) | TGI (A549 NSCLC) | TGI (NCI-H522 lung) | TGI (KM12 colon) | TGI (UACC-257 melanoma) | TGI (HT29 colon) | TGI (SF-539 CNS) | TGI (SF-268 CNS) | TGI (OVCAR-8 ovarian) | TGI (SK-OV-3 ovarian) | TGI (SNB-19 CNS) | TGI (IGROV1 ovarian) | TGI (M19-MEL melanoma) | TGI (HCT-15 colon) | TGI (SK-MEL-5 melanoma) | TGI (ACHN renal) | TGI (COLO 205 colon)
inactive: GI50 (SK-MEL-2 melanoma) > 100 µM | GI50 (CCRF-CEM leukemia) > 100 µM | GI50 (K-562 leukemia) > 100 µM | GI50 (DMS 114 small cell lung) 21.9 µM | GI50 (RXF 393 renal) 39.1 µM | GI50 (SF-295 CNS) 60.2 µM | GI50 (HOP-18 NSCLC) > 100 µM | GI50 (LXFL 529 NSCLC) 41.3 µM | GI50 (SR leukemia) 4.07 µM | GI50 (NCI-H23 lung) > 100 µM | GI50 (786-0 renal) > 100 µM | GI50 (A549 NSCLC) > 100 µM | GI50 (NCI-H522 lung) > 100 µM | GI50 (KM12 colon) > 100 µM | GI50 (UACC-257 melanoma) > 100 µM | GI50 (HT29 colon) > 100 µM | GI50 (SF-539 CNS) > 100 µM | GI50 (SF-268 CNS) 65.7 µM | GI50 (OVCAR-8 ovarian) > 100 µM | GI50 (SK-OV-3 ovarian) > 100 µM | GI50 (SNB-19 CNS) 65.2 µM | GI50 (IGROV1 ovarian) 58.8 µM | GI50 (M19-MEL melanoma) > 100 µM | GI50 (HCT-15 colon) > 100 µM | GI50 (SK-MEL-5 melanoma) 82.5 µM | GI50 (ACHN renal) > 100 µM | GI50 (COLO 205 colon) > 100 µM | GI50 (SK-MEL-28 melanoma) 92.1 µM
